Source: the supplement of paper PMC10307832

What was measured:
Assay in all cases: relative viability (nuclei count vs DMSO), 5 days (fraction); higher = more cells survive
Cediranib + Vorinostat = compound: COc1cc2c(Oc3ccc4[nH]c(C)cc4c3F)ncnc2cc1OCCCN1CCCC1 [Cediranib] + O=C(CCCCCCC(=O)Nc1ccccc1)NO [Vorinostat] (partner 1 µM)
Outline: (§1)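 Lung cancer cell lines in 1536-well plates got either a single drug or a fixed anchor-drug dose together with five library-drug doses (not always all listed) in √10 steps, by pin tool, on the day after seeding. Nuclei were counted after 5 days, and relative viability is the treated-to-vehicle ratio of nuclei counts. Values are medians of duplicate plates.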

Decitabine + Dasatinib = compound: Nc1ncn([C@H]2C[C@H](O)[C@@H](CO)O2)c(=O)n1 [Decitabine] + Cc1nc(Nc2ncc(C(=O)Nc3c(C)cccc3Cl)s2)cc(N2CCN(CCO)CC2)n1 [Dasatinib] (partner 0.075 µM)
Outline: as §1

Cediranib + AZD7762 = compound: COc1cc2c(Oc3ccc4[nH]c(C)cc4c3F)ncnc2cc1OCCCN1CCCC1 [Cediranib] + NC(=O)Nc1cc(-c2cccc(F)c2)sc1C(=O)N[C@H]1CCCNC1 [AZD7762] (partner 0.2 µM)
Outline: as §1

[1] = compound: O=C(C[C@H]1NCCC[C@@H]1O)Cn1cnc2cc(Br)c(Cl)cc2c1=O (racemic) [Halofuginone] + C[C@@H](Oc1cc(-c2cnn(C3CCNCC3)c2)cnc1N)c1c(Cl)ccc(F)c1Cl [Crizotinib] (partner 1 µM)
Outline: as §1

Cell Line	relative viability (Cediranib + Vorinostat; first compound 0.04 µM)	relative viability (Cediranib + Vorinostat; first compound 0.4 µM)	relative viability (Cediranib + Vorinostat; first compound 1.265 µM)	relative viability (Cediranib + Vorinostat; first compound 4 µM)	relative viability (Decitabine + Dasatinib; first compound 0.04 µM)	relative viability (Decitabine + Dasatinib; first compound 0.1265 µM)	relative viability (Decitabine + Dasatinib; first compound 0.4 µM)	relative viability (Decitabine + Dasatinib; first compound 1.265 µM)	relative viability (Decitabine + Dasatinib; first compound 4 µM)	relative viability (Cediranib + AZD7762; first compound 0.04 µM)	relative viability (Cediranib + AZD7762; first compound 0.4 µM)	relative viability (Cediranib + AZD7762; first compound 1.265 µM)	relative viability (Cediranib + AZD7762; first compound 4 µM)	relative viability ([1]; first compound 0.001 µM)	relative viability ([1]; first compound 0.003162 µM)	relative viability ([1]; first compound 0.01 µM)	relative viability ([1]; first compound 0.03162 µM)	relative viability ([1]; first compound 0.1 µM)	relative viability (Cediranib + Vorinostat; first compound 0.1265 µM)	relative viability (Cediranib + AZD7762; first compound 0.1265 µM)
PC-3 [JPC-3]	0.771	0.765	0.855	0.797	0.628	0.782	0.565	0.437	0.399	0.758	0.769	0.749	0.783	1.03	0.969	0.975	0.943	0.988	–	–
HCC-44	1.14	1.07	1.1	1.11	–	–	–	–	–	1.09	1	0.941	1.04	0.89	0.833	0.72	0.745	0.516	0.94	0.843
NCI-H2405	0.995	0.983	1.03	1.21	0.209	0.194	0.286	0.204	0.203	0.749	0.594	0.864	0.803	0.907	0.935	0.822	0.831	0.74	0.928	1.31
LXF-289	0.754	0.724	0.812	0.787	0.201	0.193	0.129	0.118	0.0831	1.12	1.02	0.971	1.11	0.829	0.737	0.746	0.825	0.653	–	–
LOU-NH91	0.898	0.873	0.823	0.857	0.43	0.551	0.627	0.491	0.519	0.803	0.693	0.697	0.803	0.782	0.718	0.714	0.964	0.688	0.696	0.86
A549	–	–	–	–	–	–	–	–	–	–	–	–	–	0.824	0.75	0.611	0.338	0.0443	–	–
H3255	0.921	0.706	–	0.735	–	0.341	0.251	0.351	0.252	0.889	0.924	0.824	0.886	0.94	0.948	0.875	0.952	0.791	–	0.811
NCI-H1395	0.686	0.601	0.645	0.711	0.409	0.416	0.428	0.413	0.417	0.382	0.378	0.402	0.392	–	–	–	–	–	0.689	0.404
LC-2-ad	0.678	0.669	0.825	0.705	0.416	0.603	0.404	0.262	0.261	0.92	0.759	0.88	0.85	0.555	0.472	0.431	0.516	0.439	0.625	1.02
NCI-H838	0.703	0.678	0.763	0.838	0.326	0.325	0.241	0.273	0.242	0.978	0.934	0.896	0.975	0.904	0.799	0.815	0.718	0.134	0.712	0.934
Calu-6	–	–	–	–	–	–	–	–	–	–	–	–	–	0.882	0.814	0.82	0.407	0.151	–	–
NCI-H1648	0.569	0.511	0.271	0.425	–	–	–	–	–	0.586	0.636	0.514	0.72	–	–	–	–	–	0.474	0.533
LCLC-97TM1	0.655	0.536	0.707	1.08	0.535	0.507	0.42	0.222	0.119	0.418	0.329	0.244	0.287	0.394	0.297	0.31	0.266	0.237	–	–
HCC-15	0.814	0.821	0.907	0.916	0.625	0.581	0.408	0.361	0.333	1.39	1.18	1.35	1.11	0.827	0.887	0.737	0.826	0.657	–	–
CAL-12T	0.942	0.772	0.701	1.05	0.356	0.477	–	0.212	0.235	0.668	0.633	0.603	0.669	0.733	0.835	0.527	0.834	0.237	0.808	0.638
NCI-H727	0.934	1.08	1.21	1.27	0.397	0.458	0.338	0.334	0.34	0.601	0.636	0.626	0.538	0.689	1.04	0.771	0.574	0.234	0.913	0.379
ABC-1	1.11	1.14	1.13	1.24	0.451	0.553	0.588	0.416	0.421	0.635	0.813	0.905	0.723	1.09	1.08	0.954	1.26	1.15	0.821	0.729
NCI-H2023	0.739	0.545	0.723	0.9	0.41	0.4	0.284	0.173	0.141	–	–	–	–	0.847	0.649	0.701	0.493	0.0689	0.4	–
NCI-H2342	0.712	0.733	0.613	0.758	0.329	0.365	0.308	0.295	0.303	0.502	0.421	0.402	0.464	–	–	–	–	–	0.791	0.635
SW 1573	1.03	0.991	0.582	0.806	0.458	0.433	0.416	0.153	0.163	–	–	–	–	1.03	0.915	0.803	0.574	0.195	0.532	–
